Test results reported in patent US10722582B2, “Targeted antimicrobial photodynamic therapy” (Purdue Research Foundation, priority 2018, dated 2020).

Assays:
Format in all cases: cell-based, Staphylococcus aureus
S. aureus (PCI 1203) [1] = test: Competitive hemin uptake assay (fluorescence microscopy); settings: for Fluorescence after 15 min / Fluorescence after 15 min exposure + 1 equiv. hemin: Fe-deficient conditions (TS media containing 3 mM bipy), no background subtraction; for effect of hemin competition on uptake: one equivalent of hemin, 15 minutes of co-incubation
Procedure: To elucidate the relevant structural features for the specific uptake of Ga-PpIX by S. aureus, we performed a competitive uptake assay using one equivalent of hemin against Ga-PpIX, PpIX, and eleven other fluorescent PpIX derivatives, with evaluation by fluorescence microscopy after 15 minutes of co-incubation (FIG. 5 and Table 4). These studies were partly guided by insights taken from the X-ray structures of hemin and Ga-PpIX within the binding pocket of IsdH: (i) coordination of the metal center by an apical tyrosine residue; (ii) the flanking of vinyl groups on pyrrole rings A and B against nearby aromatic residues; and (iii) the extension and presumed hydration of the propionyl groups (rings C and D) outside of the binding pocket.
Bacteria were cultured and assayed in iron-deficient media unless otherwise noted. A stock solution of Ga-PpIX (14.6 μM) was prepared by dispersing 5 mg in 1 mL of 10% DMSO in PBS for 10 minutes in an ultrasonic cleaning bath protected from light, followed by filtration and 10× dilution in PBS just prior to use. Bacterial suspensions (0.5 mL) were treated with freshly prepared solutions of PpIX derivatives for specified periods (5-15 min), then harvested by centrifugation at 5.2 g for 5 minutes, redispersed twice in 0.5 mL deionized water, and centrifuged a third time. A 10-μL aliquot of concentrated bacteria was deposited onto a glass slide and dried in air for 20 min, then imaged by fluorescence microscopy as described above. For details on fluorescence image processing and quantitative analysis, see Supporting Information.
S. aureus (PCI 1203; ATCC 10537) was first cultured in standard TS broth, then in media containing 3 mM bipyridine. Bacteria were pelleted and washed with PBS buffer three times, then resuspended to a final concentration of 10^8 cfu/mL. Stock solutions of hemin and PpIX derivatives 1-13 were prepared at initial concentrations of 292 μM; hemin and fluorescent PpIX solutions were mixed in a 1:1 ratio (0.5 mL), then added to 0.5 mL of bacterial suspension and allowed to sit for 15 min at room temperature. For control studies, hemin or fluorophore solutions were substituted with PBS to maintain constant […]. Bacteria were harvested and washed as described above, then evaluated by fluorescence microscopy for relative uptake efficiency.
Darkfield and fluorescent images were acquired in succession, with the former used to map regions of interest (ROIs) by tracing the outlines of bacteria (FIG. 8). Three images were acquired for each sample; in each case, the tracing map was overlaid onto the fluorescence image to calculate pixel intensities within each ROI, using the mean pixel intensity for quantitative analysis. Bacteria were also imaged without treatment with PpIX analogs, most of which produced values close to that of background except for Salmonella enterica, which served as the upper limit of autofluorescence (cf. FIG. 4). Data collection and image analyses were performed by the same user to ensure consistency for comparative analysis.

[2] = test system: S. aureus (PCI 1203; ATCC 10537); test: aPDI with CFL irradiation (406 nm), planktonic bacteria, drop-plate colony count; settings: for potency relative to dark toxicity (0 min exposure): 3-log reduction
Procedure: The aPDI properties of Ga-PpIX were compared against PpIX, whose photosensitizer activities are well known and whose optical profile is similar to that of Ga-PpIX (FIG. 2).
All bacterial strains were cultured at 37° C. in an aerobic atmosphere unless otherwise noted. […] Bacterial counts were estimated in units of cfu/mL by plating serial dilutions onto agar plates, followed by incubation for 16 hours at 37° C. […] Further details and variations on iron-deficient culture conditions are provided in Supporting Information.
Antimicrobial assays were performed on planktonic bacteria at 10^7 cfu/mL with variable exposure times to CFL irradiation, followed by plating on agar and incubation at 37° C. […] The irradiated bacteria were plated onto agar in serial tenfold dilutions (10^7-10^1 cfu/mL); controls included one set of wells without photosensitizer, and one set of wells with photosensitizer but without 15 min irradiation, prior to plating (dark toxicity). Bacterial counts were determined by the drop-plate method using TS-agar plates, and reported in colony-forming units per milliliter (cfu/mL).
The irradiation source consisted of a 20-W compact fluorescent lightbulb (CFL; Sunlite SL20/BLB) housed in an ellipsoidal reflector dome.

S. aureus [3] = test: Antibacterial activity assay with LED light
Procedure: (§1) Antibacterial activity assay general protocol: Used LED light to test conditions. Bacteria were grown in TS broth, followed by 3 mM bipyridine in TS broth until log phase. Bacteria were then diluted with PBS, to OD 0.1 (˜10^) and then to ˜10^7 cfu/mL. 100 uL of bacteria were placed in 96 well plates with the appropriate GaPpIX concentration. 2× serial dilutions were then done to obtain other GaPpIX concentrations. Each concentration was done in triplicate. Bacteria were left incubating and irradiating for different amount of times at different light powers or left in the dark. 10× Serial dilutions were done and bacteria were plated for colony counting using the drop-plate technique. Colonies were counted after 24 hours. As reported herein, a 3-log reduction equals measurable antimicrobial action; a 6-log reduction equals total eradication.
(§2) Stock solution preparation (AVM-3-36, 10 nm AgNP). Prepared a solution of (AVM-2-273) GaPpIX-apoHb 1 mg/mL in MP H2O, deaerated. Took 10 mL of 10 nm AgNPs, centrifuged at 900 G for 5 min (Beckman, 3100 RPM), took supernantant and added 200 uL of GaPpIXHb. After overnight, centrifuged 3000 RPM g for 5 minutes (Beckman). Took supernantant and centrifuged using a 100 K CentriCon tube at 4000 RPM for 5 minutes, 3×. Added 15 mM borate buffer to NPs. Based on calibration curve, the stock solution is 1.94 ug/mL AgNP, so stock: 79 μg/mL AgNP, 10.37 μg/mL GaPpIXHb, 0.446 μg/mL GaPpIX (refer to AVM-2-293A and AVM-3-3).
(§3) The following antibacterial activity measurements were assayed in the presence of AgNP.

S. aureus [4] = test: aPDI with 405-nm LED bar, summary over strains; settings: Ga-hemoglobin on 10-nm AgNP, 405-nm light, fluence about 1 J/cm^2
Procedure: as §1

MRSA386 = test: Antibacterial activity assay with LED light; settings: in the presence of 10 nm AgNP
Procedure: as §1, §2, §3

MRSA383 = test: Antibacterial activity assay with LED light; settings: in the presence of 10 nm AgNP
Procedure: as §1, §2, §3

MRSA387 = test: Antibacterial activity assay with LED light; settings: in the presence of 10 nm AgNP
Procedure: as §1, §2, §3

MRSA385 = test: Antibacterial activity assay with LED light; settings: in the presence of 10 nm AgNP
Procedure: as §1, §2, §3

S. aureus (PCI 1203) [5] = test: Competitive hemin uptake assay (fluorescence microscopy); settings: standard conditions (TS media); no background subtraction

Compound | Fluorescence after 15 min (S. aureus (PCI 1203) [1]) [a.u.] | Fluorescence after 15 min exposure + 1 equiv. hemin (S. aureus (PCI 1203) [1]) [a.u.] | effect of hemin competition on uptake (S. aureus (PCI 1203) [1]) | also measured
3,8-Diacetyldeuteroporphyrin dimethyl diester [DiAcDP diMe (12)] | 20.9 | 18.05 | less affected by hemin | 
CC1=C(CCC(=O)O)c2cc3[nH]c(cc4nc(cc5[nH]c(cc1n2)c(C)c5C(C)O)C(C)=C4C(C)O)c(C)c3CCC(=O)O (stereo not drawn) [HP (4), hematoporphyrin] | 14.38 | 9.58 |  | 
COC(=O)CCc1c(C)c2cc3nc(cc4nc(cc5[nH]c(cc1[nH]2)c(CCC(=O)OC)c5C)C(C(C)O)=C4C)C(C(C)O)=C3C (stereo not drawn) [HP diMe (8), HP dimethyl diester] | 29.05 | 26.9 |  | 
C=CC1=C(C)c2cc3[nH]c(cc4[nH]c(cc5nc(cc1n2)C(C)=C5C=C)c(C)c4CCC(=O)OC)c(CCC(=O)OC)c3C [PpIX diMe (7), PpIX dimethyl diester] | 15.75 | 12.75 |  | 
C[n+]1ccc(-c2c3nc(c(-c4cc[n+](C)cc4)c4ccc([nH]4)c(-c4cc[n+](C)cc4)c4nc(c(-c5cc[n+](C)cc5)c5ccc2[nH]5)C=C4)C=C3)cc1 [TMPyP, reference compound] |  |  |  | Antimicrobial activity (minimum 3-log CFU reduction) ([2]; 0 min (dark), no irradiation (dark toxicity)): < 7.4 μM; Antimicrobial activity (minimum 3-log CFU reduction) ([2]; 0 min (dark), no irradiation (dark toxicity), listed as TMPy): <7.4 μM; Antimicrobial activity (minimum 3-log CFU reduction) ([2]; 5 min CFL 406 nm, 12.4 mW/cm^2 (3.7 J/cm^2)): 0.92 μM; potency relative to dark toxicity (0 min exposure) ([2]; 5 min CFL): <8x; Antimicrobial activity (minimum 3-log CFU reduction) ([2]; 15 min CFL 406 nm, 12.4 mW/cm^2 (11.2 J/cm^2)): 0.23 μM; potency relative to dark toxicity (0 min exposure) ([2]; 15 min CFL): <32x; concentration for 3-log reduction (measurable antimicrobial action) (S. aureus [3]): 235 nM; concentration for 6-log reduction (total eradication) (S. aureus [3]): 940 nM
C=CC1=C(C)c2cc3[n-]c(cc4nc(cc5[n-]c(cc1n2)c(C)c5C=C)C(C)=C4CCC(=O)O)c(CCC(=O)O)c3C.[Zn+2] [Zn-PpIX (3), Zn-PpIX] | 31.45 | 16.87 | moderately affected by hemin | 
C=CC1=C(C)c2cc3[n-]c(cc4[n-]c(cc5nc(cc1n2)C(C)=C5C=C)c(C)c4CCC(=O)O)c(CCC(=O)O)c3C.[Cl-].[Fe+3] [hemin, Fe(III)-protoporphyrin IX, reference compound] | 2.55 |  |  | 
Ga(III) diacetyldeuteroporphyrin (diAcDP) dimethyl diester [Ga-DiAcDP diMe (11)] | 12.27 | 11.85 | less affected by hemin | 
Ga(III)-PpIX dimethyl diester [Ga-PpIX diMe (6)] | 60.55 | 33.95 |  | 
GaPpIX/10 nm HbAgNP: GaPpIX added to apohemoglobin (Ga-hemoglobin) adsorbed onto 10-nm Ag nanoparticles |  |  |  | GaPpIX effective concentration (aPDI) (S. aureus [4]): 0.022 to 0.080 µM; concentration for 3-log reduction (MRSA386): 79 nM; concentration for 6-log reduction (MRSA386): 158 nM; concentration for 3-log reduction (MRSA383): 27 nM; concentration for 6-log reduction (MRSA383): 79 nM; concentration for 3-log reduction (MRSA387): 43 nM; concentration for 6-log reduction (MRSA387): 218 nM; concentration for 3-log reduction (S. aureus [3]; in the presence of 10 nm AgNP): 22 nM; concentration for 6-log reduction (S. aureus [3]; in the presence of 10 nm AgNP): 27 nM; concentration for 3-log reduction (MRSA385): 27 nM; concentration for 6-log reduction (MRSA385): 109 nM
Verteporfin [Verteporfin (13), reference compound] | 30.75 | 28 | less affected by hemin | Fluorescence after 15 min (S. aureus (PCI 1203) [5]): 25.82 a.u.; Fluorescence after 15 min exposure + 1 equiv. hemin (S. aureus (PCI 1203) [5]): 23.72 a.u.
Zn-HP [Zn-HP (5)] | 29.2 | 14.52 | moderately affected by hemin | 
di-O-acetyl-HP dimethyl diester [DiAcHP diMe (9)] | 21.6 | 18.95 | less affected by hemin | 
di-O-succinyl-HP dimethyl diester [DiSuccHP diMe (10)] | 19.37 | 16.9 | less affected by hemin | 
